Measured values as given in DBAASP.
In brackets after ≈: the same amount, converted by molar mass. Several values for one entry are separate records, joined by “and”; a condition that tells them apart may be missing. Equal entries are not always repeated. Blank lines part the entries; values can stand above or below the compound they belong to.

What was measured:
Experiment in all cases: ≥ marks a high value that may be exact or a test limit, other limits are often not marked, values filed in µg/mL are converted to µM
[1] = tested on: Erwinia amylovora PMV 6076
[2] = tested on: Pseudomonas syringae pv. actinidiae Psa3700.1.1
[3] = tested on: Pseudomonas syringae pv. syringae EPS 94
[4] = tested on: Xanthomonas arboricola pv. pruni CFBP 5563
[5] = tested on: Xanthomonas campestris pv. Vesicatoria 2133-2
[6] = tested on: Xanthomonas fragariae Xf349-9A
[7] = tested on: Bacillus subtilis ATCC 6633
[8] = tested on: Enterococcus faecalis ATCC 12953
[9] = tested on: Escherichia coli ATCC 8739
[10] = tested on: Klebsiella pneumoniae ATCC 13885
[11] = tested on: Proteus mirabilis ATCC 25933
[12] = tested on: Pseudomonas aeruginosa ATCC 15442
[13] = tested on: Salmonella enterica subsp. enterica serovar Typhimurium ATCC 14028
[14] = tested on: Staphylococcus aureus ATCC 29213
[15] = tested on: Streptococcus pyogenes ATCC 19615
[16] = tested on: Bacillus megaterium KCTC 1096
[17] = tested on: Bacillus subtilis KCTC 1918
[18] = tested on: Escherichia coli KCTC 1682
[19] = tested on: Proteus vulgaris
[20] = tested on: Pseudomonas aeruginosa KCTC 1637
[21] = tested on: Staphylococcus aureus KCTC 1621
[22] = tested on: Bacillus subtilis ATCC 11060
[23] = tested on: Candida albicans
[24] = tested on: Enterococcus faecalis ATCC 29212
[25] = tested on: Escherichia coli 078
[26] = tested on: Escherichia coli CMCC 44102
[27] = tested on: Escherichia coli CVCC 1515
[28] = tested on: Escherichia coli ER2566
[29] = tested on: Escherichia coli K88
[30] = tested on: Escherichia coli UB1005
[31] = tested on: Escherichia coli
[32] = tested on: Listeria monocytogenes
[33] = tested on: Neisseria gonorrhoeae F-62
[34] = tested on: Neisseria gonorrhoeae FA-19
[35] = tested on: Pseudomonas aeruginosa ATCC 10419
[36] = tested on: Pseudomonas aeruginosa ATCC 21625
[37] = tested on: Pseudomonas aeruginosa ATCC 21630
[38] = tested on: Pseudomonas aeruginosa ATCC 27853
[39] = tested on: Salmonella enterica subsp. enterica serovar Pullorum C79-13
[40] = tested on: Salmonella enterica subsp. enterica serovar Typhimurium C77-31
[41] = tested on: Staphylococcus aureus ATCC 25923
[42] = tested on: Staphylococcus epidermidis ATCC 12228
[43] = tested on: Candida albicans 08022710
[44] = tested on: Candida albicans 08022821
[45] = tested on: Candida albicans ATCC 2002
[46] = tested on: Candida albicans SC5314
[47] = tested on: Pseudomonas aeruginosa 08031014
[48] = tested on: Pseudomonas aeruginosa
[49] = tested on: Staphylococcus aureus 08A865
[50] = tested on: Staphylococcus aureus 08A875
[51] = tested on: Staphylococcus aureus ATCC 2592

MIC [1]: ≥ 35.4 µM | MIC [2]: ≥ 50 µM | MIC [3]: ≥ 50 µM | MIC [4]: 2.84 µM (≈ 5.45 µg/mL) | MIC [5]: 4.38 µM (≈ 8.41 µg/mL) | MIC [6]: ≥ 50 µM
Compound: CC[C@H](C)[C@H](NC(=O)[C@H](CCCCN)NC(=O)[C@H](CCCCN)NC(=O)[C@H](CC(C)C)NC(=O)[C@H](CC(=O)O)NC(=O)[C@@H](NC(=O)[C@@H](N)Cc1ccccc1)C(C)C)C(=O)N[C@@H](C)C(=O)N[C@@H](CC(N)=O)C(=O)N[C@H](C(=O)N[C@H](C(=O)N[C@@H](CC(N)=O)C(=O)N[C@@H](CO)C(=O)N[C@H](C(=O)N[C@@H](Cc1ccccc1)C(=O)NCC(=O)N[C@@H](CCCCN)C(N)=O)[C@@H](C)CC)[C@@H](C)CC)[C@@H](C)CC [FVDLKKIANIINSIFGK]

MIC [7]: ≥ 203 µM | MIC [8]: ≥ 101 µM | MIC [9]: ≥ 203 µM | MIC [10]: ≥ 101 µM | MIC [11]: ≥ 101 µM | MIC [12]: ≥ 203 µM | MIC [13]: 203 µM (≈ 256 µg/mL) | MIC [14]: 203 µM (≈ 256 µg/mL) | MIC [15]: ≥ 101 µM
Compound: CC[C@H](C)[C@H](N)C(=O)N[C@@H](Cc1ccc(O)cc1)C(=O)N[C@@H](Cc1ccc(O)cc1)C(=O)N1CCC[C@H]1C(=O)N1CCC[C@H]1C(=O)N[C@@H](CC(N)=O)C(=O)N[C@@H](Cc1cnc[nH]1)C(=O)N[C@@H](CC(N)=O)C(=O)N[C@@H](Cc1ccccc1)C(=O)N1CCC[C@H]1C(N)=O [IYYPPNHNFP]

MIC [16]: 3.12 µM (≈ 6.33 µg/mL) | MIC [17]: 1.1 µM (≈ 2.23 µg/mL) | MIC [18]: 8.84 µM (≈ 17.9 µg/mL) | MIC [19]: 1.56 µM (≈ 3.16 µg/mL) | MIC [20]: 6.25 µM (≈ 12.7 µg/mL) | MIC [21]: 3.12 µM (≈ 6.33 µg/mL)
Compound: CC[C@H](C)[C@H](NC(=O)[C@H](CCCCN)NC(=O)[C@H](CCCCN)NC(=O)[C@H](Cc1ccccc1)NC(=O)[C@H](CC(C)C)NC(=O)[C@H](CCCCN)NC(=O)[C@H](Cc1c[nH]c2ccccc12)NC(=O)[C@@H](N)CCCCN)C(=O)N1CCC[C@H]1C(=O)N[C@@H](CC(C)C)C(=O)N[C@@H](Cc1cnc[nH]1)C(=O)N[C@@H](CC(C)C)C(=O)N[C@@H](C)C(=O)N[C@@H](CCCCN)C(=O)N[C@@H](CCCCN)C(=O)N[C@@H](Cc1ccccc1)C(N)=O [KWKLFKKIPLHLAKKF]

MIC [22]: 16.1 µM (≈ 33.1 µg/mL) | MIC [23]: 4.66 µM (≈ 9.58 µg/mL) | MIC [24]: 32.2 µM (≈ 66.2 µg/mL) | MIC [25]: 16.1 µM (≈ 33.1 µg/mL) | MIC [26]: 1.02 µM (≈ 2.09 µg/mL) | MIC [27]: 1.99 µM (≈ 4.09 µg/mL) | MIC [28]: 0.485 µM (≈ 0.998 µg/mL) | MIC [29]: 4.03 µM (≈ 8.28 µg/mL) | MIC [30]: 1.99 µM (≈ 4.09 µg/mL) | MIC [31]: 1.12 µM (≈ 2.29 µg/mL) | MIC [32]: 1.36 µM (≈ 2.79 µg/mL) | MIC [33]: 0.679 µM (≈ 1.4 µg/mL) | MIC [34]: 0.873 µM (≈ 1.8 µg/mL) | MIC [35]: 4.03 µM (≈ 8.28 µg/mL) | MIC [36]: 8.05 µM (≈ 16.6 µg/mL) | MIC [37]: 8.05 µM (≈ 16.6 µg/mL) | MIC [38]: 4.03 µM (≈ 8.28 µg/mL) | MIC [39]: 1.99 µM (≈ 4.09 µg/mL) | MIC [13]: 1.99 µM (≈ 4.09 µg/mL) | MIC [40]: 4.03 µM (≈ 8.28 µg/mL) | MIC [41]: 8.05 µM (≈ 16.6 µg/mL) | MIC [14]: 4.03 µM (≈ 8.28 µg/mL) | MIC [42]: 32.2 µM (≈ 66.2 µg/mL)
Compound: CC(C)C[C@H](NC(=O)CNC(=O)CNC(=O)CNC(=O)[C@@H](N)CCCNC(=N)N)C(=O)N[C@H]1CSSC[C@@H](C(=O)N[C@H](C(=O)NCC(=O)N[C@@H](CCCNC(=N)N)C(N)=O)C(C)C)NC(=O)[C@H](C(C)C)NC(=O)[C@@H]2CSSC[C@H](NC(=O)[C@H](Cc3ccc(O)cc3)NC1=O)C(=O)N[C@@H](CCCNC(=N)N)C(=O)N[C@@H](CCCNC(=N)N)C(=O)N[C@@H](CCCNC(=N)N)C(=O)N[C@@H](Cc1ccccc1)C(=O)N2 [RGGGLCYCRRRFCVCVGR]

MIC [7]: 29.2 µM and 21.9 µM | MIC [43]: 5.47 µM (≈ 18.7 µg/mL) | MIC [44]: 2.74 µM (≈ 9.37 µg/mL) | MIC [45]: 1.37 µM and 0.686 µM | MIC [46]: ≥ 64 µM | MIC [23]: 1.37 µM (≈ 4.69 µg/mL) | MIC [31]: 1.94 µM (≈ 6.63 µg/mL) | MIC [47]: 10.9 µM (≈ 37.5 µg/mL) | MIC [38]: 5.47 µM and > 2.74 µM | MIC [48]: 2.74 µM (≈ 9.37 µg/mL) | MIC [49]: 2.74 µM (≈ 9.37 µg/mL) | MIC [50]: 5.47 µM (≈ 18.7 µg/mL) | MIC [51]: 2.74 µM and 1.37 µM | MIC [14]: > 64 µM
Compound: CC[C@H](C)[C@H](NC(=O)[C@H](Cc1cnc[nH]1)NC(=O)[C@H](CO)NC(=O)[C@@H](NC(=O)[C@@H](NC(=O)[C@@H](NC(=O)[C@@H](NC(=O)[C@H](CCCNC(=N)N)NC(=O)[C@H](CC(C)C)NC(=O)[C@H](CCCCN)NC(=O)[C@H](CCC(=O)O)NC(=O)[C@H](CCCCN)NC(=O)[C@H](CC(C)C)NC(=O)[C@H](CCCCN)NC(=O)[C@@H]1CSSC[C@H](NC(=O)[C@H](CCCCN)NC(=O)[C@@H](N)CCCNC(=N)N)C(=O)N[C@@H](CC(N)=O)C(=O)N[C@@H](Cc2ccccc2)C(=O)N[C@@H](CC(C)C)C(=O)N1)[C@@H](C)O)C(C)C)[C@@H](C)CC)[C@@H](C)O)C(=O)N[C@@H](CC(=O)O)C(=O)N[C@@H](CCCCN)C(=O)N[C@H](C(=O)N[C@@H](CC(C)C)C(=O)N[C@@H](CCCNC(=N)N)C(=O)N1CCC[C@H]1C(=O)N[C@@H](CCC(N)=O)C(=O)NCC(=O)O)C(C)C [RKCNFLCKLKEKLRTVITSHIDKVLRPQG]
